Measured values: patent publication US8846947B2, “Benzimidazoles and related analogs as sirtuin modulators” (GlaxoSmithKline LLC, priority 2008, dated 2014)

The compounds below were run against T1, SIRT1 (Homo sapiens, UniProt Q96EB6) (assay: Mass spectrometry based SIRT1 deacetylase activation assay (acetylated p53-derived peptide substrate)).
T1 sequence (Q96EB6 1-747): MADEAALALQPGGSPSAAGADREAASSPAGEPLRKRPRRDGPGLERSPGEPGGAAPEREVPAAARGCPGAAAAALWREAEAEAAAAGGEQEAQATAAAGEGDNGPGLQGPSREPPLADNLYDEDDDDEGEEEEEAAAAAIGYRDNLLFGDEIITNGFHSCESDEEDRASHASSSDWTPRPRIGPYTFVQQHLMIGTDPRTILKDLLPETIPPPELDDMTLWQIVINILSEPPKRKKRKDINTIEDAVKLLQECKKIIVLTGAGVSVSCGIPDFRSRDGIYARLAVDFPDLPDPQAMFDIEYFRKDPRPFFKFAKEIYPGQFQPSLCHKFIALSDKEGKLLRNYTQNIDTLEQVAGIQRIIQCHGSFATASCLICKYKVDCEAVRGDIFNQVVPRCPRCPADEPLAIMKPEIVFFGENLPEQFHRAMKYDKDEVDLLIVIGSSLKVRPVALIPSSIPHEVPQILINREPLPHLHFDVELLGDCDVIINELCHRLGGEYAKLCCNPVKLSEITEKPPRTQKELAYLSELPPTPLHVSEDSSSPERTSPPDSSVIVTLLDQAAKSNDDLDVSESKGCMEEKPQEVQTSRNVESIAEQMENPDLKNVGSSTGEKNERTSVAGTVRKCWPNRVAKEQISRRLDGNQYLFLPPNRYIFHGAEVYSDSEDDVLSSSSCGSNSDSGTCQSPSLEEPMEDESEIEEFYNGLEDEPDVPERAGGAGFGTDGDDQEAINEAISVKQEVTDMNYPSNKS
Type: biochemical
Excerpt: A mass spectrometry based assay was used to identify modulators of SIRT1 activity. The mass spectrometry based assay utilizes a peptide having 20 amino acid residues as follows: Ac-EE-K(biotin)-GQSTSSHSK(Ac)NleSTEG-K(5TMR)-EE-NH2 (SEQ ID NO: 1) wherein K(Ac) is an acetylated lysine residue and Nle is a norleucine. The peptide is labeled with the fluorophore 5TMR (excitation 540 nm/emission 580 nm) at the C-terminus. The sequence of the peptide substrate is based on p53 with several modifications. In addition, the methionine residue naturally present in the sequence was replaced with the norleucine because the methionine may be susceptible to oxidation during synthesis and purification.
The mass spectrometry assay is conducted as follows: 0.5 μM peptide substrate and 120 μM βNAD^+ is incubated with 10 nM SIRT1 for 25 minutes at 25° C. in a reaction buffer (50 mM Tris-acetate pH 8, 137 mM NaCl, 2.7 mM KCl, 1 mM MgCl2, 5 mM DTT, 0.05% BSA). Test compounds may be added to the reaction as described above. […] After the 25 minute incubation with SIRT1, 10 μL of 10% formic acid is added to stop the reaction. Reactions are sealed and frozen for later mass spec analysis. Determination of the mass of the substrate peptide allows for precise determination of the degree of acetylation (i.e. starting material) as compared to deacetylated peptide (product).
A control for inhibition of sirtuin activity is conducted by adding 1 μL of 500 mM nicotinamide as a negative control at the start of the reaction (e.g., permits determination of maximum sirtuin inhibition). A control for activation of sirtuin activity is conducted using 10 nM of sirtuin protein, with 1 μL of DMSO in place of compound, to determine the amount of deacetylation of the substrate at a given timepoint within the linear range of the assay. This timepoint is the same as that used for test compounds and, within the linear range, the endpoint represents a change in velocity.
For the above assay, SIRT1 protein was expressed and purified as follows. […] The protein was expressed by induction with 1 mM IPTG as an N-terminal His-tag fusion protein at 18° C. overnight and harvested at 30,000×g. Cells were lysed with lysozyme in lysis buffer (50 mM Tris-HCl, 2 mM Tris[2-carboxyethyl]phosphine (TCEP), 10 μM ZnCl2, 200 mM NaCl) and further treated with sonication for 10 min for complete lysis. The protein was purified over a Ni-NTA column (Amersham) and fractions containing pure protein were pooled, concentrated and run over a sizing column (Sephadex S200 26/60 global). The peak containing soluble protein was collected and run on an Ion-exchange column (MonoQ). Gradient elution (200 mM-500 mM NaCl) yielded pure protein. This protein was concentrated and dialyzed against dialysis buffer (20 mM Tris-HCl, 2 mM TCEP) overnight. The protein was aliquoted and frozen at −80° C. until further use.
Sirtuin modulating compounds that activated SIRT1 were identified using the assay described above and are shown below in Table 1. The EC1.5 values for the activating compounds are represented by A (EC1.5<1.0 uM), B (EC1.5 1-25 uM), C (EC1.5 >25 uM). The percent maximum fold activation is represented by A (Fold activation >200%) or B (Fold Activation <200%).
For `O=C(Nc1nccs1)c1cccc2[nH]c(-c3ccc(N4CCOCC4)cc3)nc12` [Compound 268], the EC1.5 was “A (EC1.5<1.0 uM)” and the “Fold Act. (percent maximum fold activation)” value was “A (Fold activation >200%)”.
In the case of `O=C(Nc1nccs1)c1cccc2[nH]c(-c3ccnc(N4CCOCC4)c3)nc12` [Compound 269], the EC1.5 is reported as “A (EC1.5<1.0 uM)” and the “Fold Act. (percent maximum fold activation)” value is reported as “A (Fold activation >200%)”.
`O=C(NCc1cccnc1)c1cccc2[nH]c(-c3cccc(C(F)(F)F)c3)nc12` [Compound 270] was tested, and the EC1.5 was “C (EC1.5 >25 uM)” and the “Fold Act. (percent maximum fold activation)” value was “B (Fold Activation <200%)”.
For `O=C(NCc1ccncc1)c1cccc2[nH]c(-c3cccc(C(F)(F)F)c3)nc12` [Compound 271], the EC1.5 was “C (EC1.5 >25 uM)” and the “Fold Act. (percent maximum fold activation)” value was “B (Fold Activation <200%)”.
For `O=C(NC1CN2CCC1CC2)c1cccc2[nH]c(-c3cccc(C(F)(F)F)c3)nc12` (stereo not shown) [Compound 272], the EC1.5 was “B (EC1.5 1-25 uM)” and the “Fold Act. (percent maximum fold activation)” value was “A (Fold activation >200%)”.
With `O=C(NC1CCOC1=O)c1cccc2[nH]c(-c3cccc(C(F)(F)F)c3)nc12` (stereo not shown) [Compound 273] the EC1.5 was “B (EC1.5 1-25 uM)” and the “Fold Act. (percent maximum fold activation)” value was “A (Fold activation >200%)”.
With `Cc1nc(NC(=O)c2cccc3[nH]c(-c4cccc(C(F)(F)F)c4)nc23)sc1C` [Compound 274] the EC1.5 was “A (EC1.5<1.0 uM)” and the “Fold Act. (percent maximum fold activation)” value was “A (Fold activation >200%)”.
`O=C(NC1CCOCC1)c1cccc2[nH]c(-c3cccc(C(F)(F)F)c3)nc12` [Compound 275] was tested, and the EC1.5 was “B (EC1.5 1-25 uM)” and the “Fold Act. (percent maximum fold activation)” value was “A (Fold activation >200%)”.
For `O=C(NC1CCCC1)c1cccc2[nH]c(-c3cccc(C(F)(F)F)c3)nc12` [Compound 276], the EC1.5 was “C (EC1.5 >25 uM)” and the “Fold Act. (percent maximum fold activation)” value was “B (Fold Activation <200%)”.
In the case of `O=C(Nc1ccncn1)c1cccc2[nH]c(-c3cccc(C(F)(F)F)c3)nc12` [Compound 277], the EC1.5 is reported as “B (EC1.5 1-25 uM)” and the “Fold Act. (percent maximum fold activation)” value is reported as “A (Fold activation >200%)”.
`Cc1cc(NC(=O)c2cccc3[nH]c(-c4cccc(C(F)(F)F)c4)nc23)n(C)n1` [Compound 278] was tested, and the EC1.5 was “B (EC1.5 1-25 uM)” and the “Fold Act. (percent maximum fold activation)” value was “A (Fold activation >200%)”.
With `Cc1cc(C)nc(NC(=O)c2cccc3[nH]c(-c4cccc(C(F)(F)F)c4)nc23)c1` [Compound 279] the EC1.5 was “A (EC1.5<1.0 uM)” and the “Fold Act. (percent maximum fold activation)” value was “A (Fold activation >200%)”.
With `O=C(Nc1nccs1)c1cccc2[nH]c(-c3ccccc3N3CCCC3)nc12` [Compound 280] the EC1.5 was “B (EC1.5 1-25 uM)” and the “Fold Act. (percent maximum fold activation)” value was “A (Fold activation >200%)”.
With `Cc1cc(-c2nc3c(C(=O)Nc4nccs4)cccc3[nH]2)n(C)n1` [Compound 281] the EC1.5 was “A (EC1.5<1.0 uM)” and the “Fold Act. (percent maximum fold activation)” value was “A (Fold activation >200%)”.
In the case of `O=C(Nc1nccs1)c1cccc2[nH]c(-c3cccnc3N3CCNCC3)nc12` [Compound 282], the EC1.5 is reported as “B (EC1.5 1-25 uM)” and the “Fold Act. (percent maximum fold activation)” value is reported as “A (Fold activation >200%)”.
In the case of `O=C(Nc1nc(-c2ccccc2)cs1)c1cccc2[nH]c(-c3cccc(C(F)(F)F)c3)nc12` [Compound 283], the EC1.5 is reported as “B (EC1.5 1-25 uM)” and the “Fold Act. (percent maximum fold activation)” value is reported as “A (Fold activation >200%)”.
In the case of `O=C(Nc1nc2ccccc2s1)c1cccc2[nH]c(-c3cccc(C(F)(F)F)c3)nc12` [Compound 284], the EC1.5 is reported as “B (EC1.5 1-25 uM)” and the “Fold Act. (percent maximum fold activation)” value is reported as “A (Fold activation >200%)”.
In the case of `O=C(Nc1ccc(Cl)cn1)c1cccc2[nH]c(-c3cccc(C(F)(F)F)c3)nc12` [Compound 285], the EC1.5 is reported as “B (EC1.5 1-25 uM)” and the “Fold Act. (percent maximum fold activation)” value is reported as “A (Fold activation >200%)”.
With `O=C(Nc1cccnc1Cl)c1cccc2[nH]c(-c3cccc(C(F)(F)F)c3)nc12` [Compound 286] the EC1.5 was “B (EC1.5 1-25 uM)” and the “Fold Act. (percent maximum fold activation)” value was “A (Fold activation >200%)”.
`O=C(Nc1ccncc1)c1cccc2[nH]c(-c3cccc(N4CCOCC4)c3)nc12` [Compound 287] was tested, and the EC1.5 was “A (EC1.5<1.0 uM)” and the “Fold Act. (percent maximum fold activation)” value was “A (Fold activation >200%)”.
With `O=C(Nc1cccnc1)c1cccc2[nH]c(-c3cccc(N4CCOCC4)c3)nc12` [Compound 288] the EC1.5 was “A (EC1.5<1.0 uM)” and the “Fold Act. (percent maximum fold activation)” value was “A (Fold activation >200%)”.
With `O=C(Nc1ccccn1)c1cccc2[nH]c(-c3cccc(N4CCOCC4)c3)nc12` [Compound 289] the EC1.5 was “A (EC1.5<1.0 uM)” and the “Fold Act. (percent maximum fold activation)” value was “A (Fold activation >200%)”.
For `O=C(Nc1nccs1)c1cccc2[nH]c(-c3ccc(Cl)cc3C(F)(F)F)nc12` [Compound 290], the EC1.5 was “A (EC1.5<1.0 uM)” and the “Fold Act. (percent maximum fold activation)” value was “A (Fold activation >200%)”.
In the case of `Cc1nn(-c2ccccc2)c(C)c1-c1nc2c(C(=O)Nc3nccs3)cccc2[nH]1` [Compound 291], the EC1.5 is reported as “A (EC1.5<1.0 uM)” and the “Fold Act. (percent maximum fold activation)” value is reported as “A (Fold activation >200%)”.
With `Cc1csc(-c2nc3c(C(=O)Nc4nccs4)cccc3[nH]2)n1` [Compound 292] the EC1.5 was “A (EC1.5<1.0 uM)” and the “Fold Act. (percent maximum fold activation)” value was “A (Fold activation >200%)”.
For `Cc1ncsc1-c1nc2c(C(=O)Nc3nccs3)cccc2[nH]1` [Compound 293], the EC1.5 was “B (EC1.5 1-25 uM)” and the “Fold Act. (percent maximum fold activation)” value was “A (Fold activation >200%)”.
With `O=C(Nc1nccs1)c1cccc2[nH]c(-c3ccncc3Cl)nc12` [Compound 294] the EC1.5 was “B (EC1.5 1-25 uM)” and the “Fold Act. (percent maximum fold activation)” value was “A (Fold activation >200%)”.
With `Cn1nc(C(F)(F)F)c(-c2nc3c(C(=O)Nc4nccs4)cccc3[nH]2)c1Cl` [Compound 295] the EC1.5 was “A (EC1.5<1.0 uM)” and the “Fold Act. (percent maximum fold activation)” value was “A (Fold activation >200%)”.
`O=C(Nc1nccs1)c1cccc2[nH]c(-c3ncccc3C(F)(F)F)nc12` [Compound 296] was tested, and the EC1.5 was “B (EC1.5 1-25 uM)” and the “Fold Act. (percent maximum fold activation)” value was “A (Fold activation >200%)”.
In the case of `O=C(Nc1cnccn1)c1cccc2[nH]c(-c3cccc(N4CCOCC4)c3)nc12` [Compound 297], the EC1.5 is reported as “A (EC1.5<1.0 uM)” and the “Fold Act. (percent maximum fold activation)” value is reported as “A (Fold activation >200%)”.
In the case of `O=C(NC1CCNCC1)c1cccc2[nH]c(-c3cccc(C(F)(F)F)c3)nc12` [Compound 298], the EC1.5 is reported as “B (EC1.5 1-25 uM)” and the “Fold Act. (percent maximum fold activation)” value is reported as “A (Fold activation >200%)”.
`Cc1cc(NC(=O)c2cccc3[nH]c(-c4cccc(C(F)(F)F)c4)nc23)no1` [Compound 299] was tested, and the EC1.5 was “B (EC1.5 1-25 uM)” and the “Fold Act. (percent maximum fold activation)” value was “A (Fold activation >200%)”.
`O=C(Nc1cccnn1)c1cccc2[nH]c(-c3cccc(C(F)(F)F)c3)nc12` [Compound 300] was tested, and the EC1.5 was “A (EC1.5<1.0 uM)” and the “Fold Act. (percent maximum fold activation)” value was “A (Fold activation >200%)”.
For `O=C(N[C@H]1CCNC1)c1cccc2[nH]c(-c3cccc(C(F)(F)F)c3)nc12` [Compound 301], the EC1.5 was “C (EC1.5 >25 uM)” and the “Fold Act. (percent maximum fold activation)” value was “B (Fold Activation <200%)”.
`O=C(Nc1nccs1)c1cccc2[nH]c(-c3cc(F)ccc3C(F)(F)F)nc12` [Compound 302] was tested, and the EC1.5 was “A (EC1.5<1.0 uM)” and the “Fold Act. (percent maximum fold activation)” value was “A (Fold activation >200%)”.
